For five molecules, IC50 and inhibition results are on record in ChEMBL document CHEMBL1146815, “Novel dual inhibitors of calpain and lipid peroxidation” (Bioorg Med Chem Lett, 2004).

The target in experiment [1] is T1, Calpain-1 catalytic subunit (Homo sapiens, UniProt P07384).
T1 sequence (P07384 whole entry): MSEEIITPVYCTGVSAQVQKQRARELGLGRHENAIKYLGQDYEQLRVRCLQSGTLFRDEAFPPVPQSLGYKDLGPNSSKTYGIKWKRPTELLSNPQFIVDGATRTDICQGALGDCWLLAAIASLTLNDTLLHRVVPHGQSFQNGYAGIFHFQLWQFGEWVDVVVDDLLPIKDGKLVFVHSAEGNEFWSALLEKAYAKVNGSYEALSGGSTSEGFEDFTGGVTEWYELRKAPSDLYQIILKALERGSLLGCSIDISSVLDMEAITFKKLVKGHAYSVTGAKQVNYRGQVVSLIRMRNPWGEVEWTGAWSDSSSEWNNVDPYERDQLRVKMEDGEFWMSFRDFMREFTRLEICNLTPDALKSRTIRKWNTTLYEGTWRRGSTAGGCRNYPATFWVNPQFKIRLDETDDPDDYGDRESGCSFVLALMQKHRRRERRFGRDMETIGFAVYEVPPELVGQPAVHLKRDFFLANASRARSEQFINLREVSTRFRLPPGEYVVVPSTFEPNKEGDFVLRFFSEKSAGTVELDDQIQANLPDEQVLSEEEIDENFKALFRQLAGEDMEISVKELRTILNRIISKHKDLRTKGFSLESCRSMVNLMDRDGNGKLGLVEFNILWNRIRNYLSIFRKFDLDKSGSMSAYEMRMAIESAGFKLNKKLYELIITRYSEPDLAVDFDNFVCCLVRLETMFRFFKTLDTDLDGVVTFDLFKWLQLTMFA
Description: Inhibitory activity against on human calpain 1.

For experiment [2], the species on record is Rattus norvegicus. Briefly: Ability to inhibit [Fe2+] induced lipid peroxidation (LPO) in rat brain microsomes. The format is functional.
The test system of experiment [3] is C6. Description: Protection against C6 glial cell death induced by maitotoxin. Type of experiment: functional, cell-based. Particulars: Rattus norvegicus; call rule not given here.
Experiment [4] concerns the target T1, Calpain-1 catalytic subunit. Briefly: Inhibitory activity against on calpain in C6 glial cells; Not active. Type of experiment: functional, cell-based, Rattus norvegicus.
For experiment [5] the target is unchanged. Description: Inhibitory activity against on human calpain 1; Not active.
For experiment [6], the system named is C6. Briefly: Protection against C6 glial cell death induced by maitotoxin at 100 uM concentration. Type of experiment: functional. Particulars: Rattus norvegicus.

Consider `CC(C)C[C@H](NC(=O)c1cccc2c1Nc1ccccc1S2)C(=O)N[C@H]1CCOC1O` (some centres not stated), for which the IC50 (as a rule, the midpoint of a concentration-inhibition curve) is 0.082 µM in experiment [1] and 3.6 µM in experiment [2].

Consider `CC(=O)OC1OCC[C@@H]1NC(=O)[C@H](CC(C)C)NC(=O)c1ccc2c(c1)Nc1ccccc1S2` (some centres not stated), for which the IC50 in experiment [3] was found to be 15.5 µM.

Turning to `Cc1cc(C(C)(C)C)c(O)c(C(C)(C)C)c1` [BUTYLATED HYDROXYTOLUENE], the IC50 entry in experiment [4] is “Not Active”; in experiment [2], 3.25 µM; in experiment [5], “Not Active”. Moreover, in experiment [6], at 100 µM the inhibition was 21%.

On to `Cc1c(C)c2c(c(C)c1O)CCC(C)(C(=O)N[C@@H](CC(C)C)C(=O)N[C@H]1CCOC1O)O2` (some centres not stated), for which the IC50 is 0.147 µM in experiment [1] and 1.7 µM in experiment [2].

With `CC(C)C[C@H](NC(=O)c1ccc2c(c1)Nc1ccccc1S2)C(=O)N[C@H]1CCOC1O` (some centres not stated), the values for the IC50 in experiment [3], in experiment [1] and in experiment [2] were 38.5 µM, 0.0225 µM and 0.07 µM, respectively.
